From the NIST ThermoML archive (doi:10.1016/j.jct.2012.11.004)

Test: mn = molality of the nth substance listed, in mol/kg
Conditions: 101 kPa, Liquid; for mass density: Vibrating tube method; for speed of sound: Pulse-echo method

O=S(=O)([O-])C(F)(F)F.O=S(=O)([O-])C(F)(F)F.O=S(=O)([O-])C(F)(F)F.[Lu+3] [lutetium(III) trifluoromethanesulfonate] + CC(=O)N(C)C
Conditions	mass density, 283.15 K [kg/m3]	mass density, 293.15 K [kg/m3]	mass density, 298.15 K [kg/m3]	mass density, 303.15 K [kg/m3]	mass density, 313.15 K [kg/m3]	mass density, 323.15 K [kg/m3]	mass density, 333.15 K [kg/m3]	speed of sound, 298.15 K [m/s]
m1 = 0.02294	960.37	951.15	946.53	941.91	932.67	923.39	914.07	1455.7
m1 = 0.03057	963.84	954.61	950	945.38	936.11	926.83	917.5	1455.4
m1 = 0.0402	968.22	958.99	954.37	949.75	940.48	931.19	921.86	1455
m1 = 0.05161	973.43	964.19	959.57	954.95	945.68	936.38	927.05	1454.7
m1 = 0.06304	978.74	969.5	964.89	960.24	950.96	941.65	932.31	1454.3
m1 = 0.07962	986.46	977.21	972.58	967.95	958.66	949.34	939.99	1453.7
m1 = 0.1022	997.19	987.92	983.29	978.65	969.35	960.02	950.65	1452.2
m1 = 0.1222	1006.81	997.54	992.9	988.26	978.94	969.59	960.2	1451.5
m1 = 0.1412	1016.12	1006.84	1002.2	997.55	988.22	978.86	969.47	1450.5
m1 = 0.1647	1027.86	1018.56	1013.91	1009.26	999.92	990.55	981.13	1449
m1 = 0.1843	1037.79	1028.48	1023.83	1019.21	1009.81	1000.43	991.01	1448.3

O=S(=O)([O-])C(F)(F)F.O=S(=O)([O-])C(F)(F)F.O=S(=O)([O-])C(F)(F)F.[Gd+3] [gadolinium (III) trifluoromethanesulfonate] + CN(C)C=O
Conditions	mass density, 283.15 K [kg/m3]	mass density, 293.15 K [kg/m3]	mass density, 298.15 K [kg/m3]	mass density, 303.15 K [kg/m3]	mass density, 313.15 K [kg/m3]	mass density, 323.15 K [kg/m3]	mass density, 333.15 K [kg/m3]	speed of sound, 298.15 K [m/s]
m1 = 0.01967	966.39	956.87	952.11	947.35	937.76	928.14	918.46	1455.8
m1 = 0.02703	969.53	960.01	955.25	950.48	940.9	931.28	921.61	1455.2
m1 = 0.03489	972.9	963.38	958.61	953.84	944.26	934.64	924.97	1454.5
m1 = 0.04531	977.36	967.83	963.07	958.3	948.72	939.1	929.43	1453.6
m1 = 0.05527	981.65	972.13	967.36	962.59	953.01	943.4	933.75	1452.8
m1 = 0.07019	988.17	978.65	973.89	969.1	959.52	949.91	940.24	1451.5
m1 = 0.09028	997.06	987.52	982.77	977.97	968.39	958.77	949.11	1449.4
m1 = 0.108	1004.97	995.43	990.66	985.88	976.29	966.68	957.02	1448
m1 = 0.1249	1012.67	1003.13	998.36	993.58	983.99	974.37	964.71	1446.3
m1 = 0.146	1022.39	1012.83	1008.05	1003.28	993.69	984.07	974.42	1443.5
m1 = 0.1634	1030.52	1020.96	1016.18	1011.39	1001.8	992.19	982.54	1441.7

O=S(=O)([O-])C(F)(F)F.O=S(=O)([O-])C(F)(F)F.O=S(=O)([O-])C(F)(F)F.[La+3] [lanthanum(III) trifluoromethanesulfonate] + CN(C)C=O
Conditions	mass density, 283.15 K [kg/m3]	mass density, 293.15 K [kg/m3]	mass density, 298.15 K [kg/m3]	mass density, 303.15 K [kg/m3]	mass density, 313.15 K [kg/m3]	mass density, 323.15 K [kg/m3]	mass density, 333.15 K [kg/m3]	speed of sound, 298.15 K [m/s]
m1 = 0.02162	966.85	957.33	952.56	947.79	938.21	928.58	918.9	1456
m1 = 0.02944	970.04	960.51	955.75	950.97	941.39	931.77	922.1	1455.5
m1 = 0.03946	974.16	964.64	959.87	955.09	945.5	935.87	926.19	1455
m1 = 0.04997	978.49	968.96	964.2	959.42	949.83	940.2	930.52	1454.3
m1 = 0.06066	–	–	–	–	–	–	–	1453.6
m1 = 0.0607	982.91	973.38	968.61	963.83	954.24	944.62	934.95	–
m1 = 0.07649	989.57	980.03	975.24	970.46	960.87	951.24	941.56	1452.5
m1 = 0.09777	998.57	989.02	984.24	979.46	969.86	960.23	950.54	1450.8
m1 = 0.1172	1006.98	997.41	992.63	987.84	978.22	968.57	958.88	1449.4
m1 = 0.136	1015.16	1005.59	1000.8	996	986.37	976.72	967.03	1448
m1 = 0.1591	1025.46	1015.87	1011.07	1006.26	996.63	986.96	977.26	1446.3
m1 = 0.1792	1034.5	1024.89	1020.09	1015.28	1005.64	995.97	986.26	1444.9
